row,melting point [°C],Compound
1,83 to 89,CN(C)CCCCCNC(=O)c1ccc(-c2nnc(CSCCOc3ccccc3)o2)cc1
2,133 to 135,COc1ccc(C(=CC=Cc2ccc(N(c3ccc(C)cc3)c3ccc(C)cc3)cc2)c2ccc(OC)cc2)cc1
3,120 to 155,Cc1cc(C2=CO[C@@](c3cc(Cl)cc(Cl)c3)(C(F)(F)F)C2)ccc1C(=O)NCC(=O)NCC(F)(F)F
4,82 to 84,O=C(NCc1ccc(Br)cc1F)OCc1ccccc1
5,97 to 103,CCCCOC(=O)c1cccc(CCN(C)CCCC(C#N)(c2ccc(OC)c(OC)c2)C(C)C)c1 (stereo not given)
6,93 to 94.5,CS(=O)(=O)C(c1ccc(Cl)cc1)c1ccc(Cl)cc1
7,216 to 217,Nc1sc2c(c1C(=O)c1ccc(Cl)cc1)CCN(C(=O)Nc1ccccc1)C2
8,133 to 134,CC1(C)NC(SCc2ccccc2)=NC1=S
9,132 to 137,CCOC(=O)Oc1ccc([N+](=O)[O-])c(C(=O)O)c1
10,> 300,O=C(c1ccccc1)c1c[nH]c2ncnc(Nc3cccc(CCO)c3)c12
11,184 to 185,CCCN(c1cccc(-c2ccnc3c([N+](=O)[O-])cnn23)c1)S(=O)(=O)c1ccc(OC)cc1
12,96 to 98,CCOP(=O)(Cc1ccc(NC(=O)[C@H]2Cc3cc(OC)c(OC)cc3C(=O)CS2)cc1)OCC
13,111 to 113,COC(=O)C1(O)CC(CO)=NN1c1ncccc1Cl (stereo not given)
14,68.5 to 70.5,COc1cc(C)c(Cc2cnoc2)cc1OC
15,113 to 116,COc1ccc(S(=O)(=O)Nc2ccccc2Nc2ccccn2)cc1
16,208 to 211,O=c1nc(N2CCCC(O)C2)sc2ncccc12 (stereo not given)
17,67 to 68,O=C(CCCCC1CCN(Cc2ccccc2)CC1)c1ccc(F)cc1
18,119,O=S(=O)(c1ccc(Cl)cc1)N1CCCC1c1ccc(F)c(Cl)c1 (racemic)
19,77 to 78,CN(C)Cc1ccccc1C(O)c1ccsc1 (stereo not given)
20,228 to 230,Cc1cc(C2(O)C(=O)c3ccccc3C2=O)c(C)cc1O
21,115 to 117,CC1(C)CCC(C)(C)c2cc(C#Cc3ccc(CO)cc3)ccc21
22,97 to 100,Nc1ccc(C(=S)OC2CCCCC2)c(Cl)c1
23,221 to 223,Cc1cc(C(=O)NC2=NC(C)CC2(c2ccccc2)c2ccccc2)[nH]n1 (stereo not given)

row,melting point [°C],Compound
1,48 to 49,CCCCCC(=O)NCCCSc1ccncc1
2,95 to 97,CC1(C(=O)Cn2cncn2)COCOC1
3,45 to 47,OC(c1ccc(F)cc1)c1cccnc1 (stereo not given)
4,206 to 208,COC(=O)c1cccc(-c2c(C)c(NC(=O)CC(C)(C)C)c(C)c3c2OCC3c2ccc(C(C)C)cc2)c1 (stereo not given)
5,150 to 151,Cc1cc(Oc2ccc(Oc3ccc(N)c(C)c3)cc2)ccc1N
6,114 to 116,COC(=O)c1cc(OC)ccc1Oc1cc(Cl)ccc1[N+](=O)[O-]
7,102 to 104,CCOC(=O)c1cnn(C)c1S(N)(=O)=O
8,157 to 158,Cc1sc(-c2ccccc2)nc1CCOc1ccc(C[C@@H](C(=O)O)n2cccc2)cc1
9,97 to 99,NS(=O)(=O)c1ccc(CCC(=O)O)cc1
10,205 to 206,CC(C)n1nc(-c2cc(C(=O)NCc3ccccc3)cnc2-c2ccccc2)ccc1=O
11,98 to 102,CSCC(C)(C)C(=O)N(C)c1cnc(-c2cncc(F)c2)s1
12,147 to 149,Cc1ccc(S(=O)(=O)N2CC3=CC(=O)CC3C2)cc1 (stereo not given)
13,174,CCc1nc2cc(COC)c(Cl)cc2n1-c1ccc(CCOC(=O)NS(=O)(=O)c2ccc(C)cc2)cc1
14,116 to 118,COC(=O)C1=C(C)NC(c2sc(C)nc2C)=NC1c1ccc(F)cc1Cl (stereo not given)
15,156 to 157,CCCCCCCCCCCCCCCC(=O)NS(=O)(=O)CCCC(=O)O
16,128,CCN(CC)c1cc(C)c2c(c1)C(=O)OC2=O
17,121 to 123,CSc1cc(C)nc(SC)c1NC(=O)CCCCSc1nc2ccccc2s1
18,134 to 135,COc1ccc(C(=O)Nc2ccccc2)cc1NCc1cccc(F)c1F
19,178,COc1cc2c(cc1[N+](=O)[O-])NC(=O)CN(CC1CC1)C2
20,160 to 162,OCC1OC(n2cnc3c(NC4CCCCC4)nc(Cl)nc32)CC1O (stereo not given)
21,109 to 110,O=C1C(=Cc2ccco2)CCc2cc(OCCn3ccnc3)ccc21
22,165,CN(C)C=C(C#N)C(=O)c1ccc(-n2ccnc2)cc1
23,230 to 233,CSc1ccc(-n2c(-c3ccc(C)cc3)nc(SC)c(C#N)c2=O)cc1

row,melting point [°C],Compound
1,213 to 217,CN(C)CCOc1ccc2c(c1)[nH]c(=O)c1c3ccccc3oc21
2,155 to 156,COc1c(OC)c(OC(C)=O)c2ccc(Cl)cc2c1O
3,68 to 69,CO/C=C(/C(=O)OC)c1ccccc1Br
4,179 to 180,c1ccc(-c2cnc3c(c2)ncn3-c2cccc(-c3cccnc3)c2)cc1
5,> 300,N=C(NO)c1ccc(-c2ccc(-c3ccc(C(=N)NO)o3)cc2)o1
6,80 to 82,COC(=O)CNC(=O)c1cncc(F)c1
7,274 to 275,CCC(=O)Nc1nc2c(s1)-c1nc(-c3ccccc3)ncc1CC2
8,87 to 88,Fc1ccc(N2CCN(CCCN(c3ccccc3)c3ccccc3)CC2)cc1
9,180 to 183,COCCOc1cc2ncnc(Nc3ccc(C)c(OC(C)=O)c3)c2cc1OC
10,153 to 154,CCOC(=O)C(C)=NNc1ccc(Br)cc1
11,156 to 158,O=C(c1cccs1)c1cnn2c(-c3cccc(NCC=C(c4ccccc4)c4ccccc4)c3)ccnc12
12,142 to 144,Cc1cc(O)ccc1NCCCCCCBr
13,180 to 182,CCN1C(=O)C(C)(C)C(=O)N(C)c2cc(CN(CCn3ccc4oc(C)cc4c3=O)Cc3ccc4c(c3)OCO4)ccc21
14,195 to 196,CC(=NNC(=N)N)c1sc(-c2ccccc2)nc1C
15,220 to 222,O=C(O)C=CC12CC(c3ccccc31)c1ccccc12
16,204 to 206,CC(=O)NC[C@H]1CN(c2ccc(-n3cnnc3)c(F)c2)C(=O)O1
17,49,C=C(C)C(=O)OCCCOc1ccc(-c2cc(OC(=O)C(=C)C)cc(-c3ccc(OCCCOC(=O)C(=C)C)cc3)c2)cc1
18,286 to 288,COc1cc(O)c(C#N)c2cc(-c3ccc(O)cc3)oc12
19,122 to 125,CC1CC(=O)C2OCC1O2 (stereo not given)
20,177 to 179,O=C(CC(=O)c1ccccc1)Nc1cc(Cl)c(Cl)cc1[N+](=O)[O-]
21,163 to 166,CCCCn1c(=O)c2nn(S(=O)(=O)c3cc(Cl)c(Cl)s3)cc2n(CCCC)c1=O
22,108 to 110,[N-]=[N+]=NCc1nc2ccccc2n1Cc1ccccc1
23,174,CCn1nnc(-c2cccc(-c3ccnc4c(C(=O)c5cccs5)cnn34)c2)n1

row,melting point [°C],Compound
1,79 to 80.5,SCC1CSC2(SCCS2)S1 (stereo not given)
2,100 to 103,CCC(=CC(CNC(=O)c1c(C)noc1C)=NO)C(C)[N+](=O)[O-] (stereo not given)
3,58,COc1ccccc1CN[C@H]1CCCN(CC(=O)O)[C@H]1c1ccccc1 (relative stereo)
4,73 to 75,COc1ccc(OC)c(C2CC=CCC2[N+](=O)[O-])c1 (stereo not given)
5,154 to 155,CN1CCCCC1Cn1nc(-c2c(-c3ccccc3)nn3ccccc23)ccc1=O (stereo not given)
6,122 to 124,Brc1ccc(C2CCN(C3CCC3)CC2)nc1
7,> 220,COc1ccc(-c2ccc3c(n2)[nH]c2ccccc23)cc1
8,80 to 81,COc1ccc(CC(=O)c2ccccc2)cc1OC
9,59 to 61,CC(C)Oc1cc(N2C(=O)C3COCCN3C2C(=O)O)c(F)cc1Cl (stereo not given)
10,157 to 160,CC(C)c1nc(C(O)(C(F)(F)F)C(F)(F)F)[nH]c1-c1ccc([N+](=O)[O-])cc1
11,103 to 110,NS(=O)(=O)c1ccc(-n2nc(CCCNC(=O)Nc3ccc(Cl)cc3)cc2-c2ccccc2)cc1
12,145,COc1ccccc1-n1c(-c2ccc(N(C)C)cc2)nnc1C(C)O (stereo not given)
13,73 to 75,CC1(C)SC2CC(=O)N2C1C#N (stereo not given)
14,157 to 159,c1ccc(CN2CCN(Cc3cc4ccccc4[nH]3)CC2)cc1
15,85 to 86,CN(CCc1ccccc1)C1CCN(C(=O)c2ccc(-n3cncn3)nc2)CC1
16,38.5 to 40,CCC(C(=O)N(C)C)n1ccc(-c2ccccc2Cl)n1 (stereo not given)
17,64 to 66,CCCCOCCOC(=O)NCCCCCCNC(=O)OCCOCCCC
18,158 to 159,O=C(O)c1ccc(F)cc1NS(=O)(=O)c1ccccc1
19,155 to 157,CCC1(CCCCN2CCc3sccc3C2)C(=O)Nc2cc(F)c(Cl)cc21 (stereo not given)
20,169 to 171,COc1ccc(C2=NN(C3CCN(C(=O)CCCOc4ccc5[nH]c(=O)ccc5c4)CC3)C(=O)CC2)cc1OC
21,80 to 82,Cc1ccc(NC(=O)C(C)(C)CCCOc2cc(C)ccc2C)c(C)c1
22,140 to 141,O=C(Nc1ccc(Oc2ccc(CCC(=O)N3CCN(Cc4ccc5c(c4)OCO5)CC3)cc2)nc1)c1ccc(C(F)(F)F)cc1

row,Compound,melting point [°C]
1,Cc1ccc(-c2c[nH]c(-c3ccc4c(c3)C(C)(C)CCC4(C)C)c2)cc1,190 to 192
2,CO[C@@H]1CCN2C(=O)N(c3ccc(C#N)c4ccccc34)C(=O)[C@H]12 (relative stereo),185 to 186
3,O=C(NC1CCCCC1)c1c(O)c2cc(Cl)ccc2n(Cc2ccccc2)c1=O,158
4,CC(CC(C(=O)N(C)C)(c1ccccc1)c1ccccc1)N1CCC(NC(=O)c2ccccc2O)C(O)C1 (stereo not given),154
5,COc1cc(OP(=O)(OC)OC)c(C(=O)c2ccccc2)s1,76
6,Cc1c(N2C[C@@H]3[C@@H](O)CCN3C2=O)ccc(C#N)c1Cl,148 to 149
7,O=C(Nc1cccc2c1C(=O)c1c-2n[nH]c1-c1ccc(C(=O)NC2CN3CCC2CC3)s1)NN1CCOCC1 (stereo not given),245 to 246
8,CCCCCCc1cc2c(s1)NC(=O)CN=C2c1ccc(OC)cc1,123 to 125
9,Cc1cc([N+](=O)[O-])cc(C(=O)NC(C)C)c1NC(=O)c1cc(C(F)(F)F)nn1-c1ncccc1Cl,170 to 172

# Source: a melting point compilation (Tetko et al.; mined from patent text by program, amines drawn as free bases though some values may be those of a salt)
